# From ChEMBL document CHEMBL2331464, “Diarylheptanoids and flavonoids from viscum album inhibit LPS-stimulated production of pro-inflammatory cytokines in bone marrow-derived dendritic cells” (J Nat Prod, 2013)
# pIC50: −log10 of the molar value.
# Tests used:
# Details in all cases: bmdc
# [1] = Cytotoxicity against C57BL/6 mouse BMDCs at 2 to 50 microM by MTT assay
# [2] = Antiinflammatory activity in C57BL/6 mouse BMDCs assessed as inhibition of LPS-stimulated IL-12p40 production treated 1 hr before LPS challenge measured 16 hrs post stimulation by ELISA
# [3] = Antiinflammatory activity in C57BL/6 mouse BMDCs assessed as inhibition of LPS-stimulated TNF-alpha production treated 1 hr before LPS challenge measured 16 hrs post stimulation by ELISA
# [4] = system: IL-6 (mouse); assay: Antiinflammatory activity in C57BL/6 mouse BMDCs assessed as inhibition of LPS-stimulated IL-6 production treated 1 hr before LPS challenge measured 16 hrs post stimulation by ELISA
pIC50 [2],pIC50 [3],pIC50 [4],Structure (SMILES),Activity [1]
< 4.30,< 4.30,< 4.30,COc1cc(O)c2c(c1)O[C@H](c1ccc(O[C@@H]3O[C@H](CO)[C@@H](O)[C@H](O)[C@H]3O[C@@H]3OC[C@](O)(CO)[C@H]3O)c(OC)c1)CC2=O,Non-toxic
< 4.30,< 4.30,< 4.30,COc1cc(/C=C/CO)cc(OC)c1O[C@@H]1O[C@H](CO)[C@@H](O)[C@H](O)[C@H]1O[C@@H]1OC[C@](O)(CO)[C@H]1O,Non-toxic
7.05,6.49,6.17,CO[C@@H](/C=C/c1ccc(O)cc1)C[C@@H](O)CCc1ccc(O)cc1,Non-toxic
4.93,< 4.30,< 4.30,CO[C@H](/C=C/c1ccc(O)cc1)C[C@@H](O)CCc1ccc(O)cc1,Non-toxic
< 4.30,< 4.30,< 4.30,O=C(/C=C/c1ccc(O)cc1)C[C@@H](O)CCc1ccc(O)cc1,Non-toxic
< 4.30,< 4.30,< 4.30,COc1cc(O)c2c(=O)c(O[C@H]3O[C@H](COC(=O)CC(C)(O)CC(=O)O)[C@@H](O)[C@H](O)[C@H]3O)c(-c3ccc(O[C@@H]4O[C@H](CO)[C@@H](O)[C@H](O)[C@H]4O)c(OC)c3)oc2c1 (some centres undefined),Non-toxic
< 4.30,< 4.30,< 4.30,COc1cc(O)c2c(=O)cc(-c3ccc(O[C@@H]4O[C@H](CO)[C@@H](O)[C@H](O)[C@H]4O[C@@H]4OC[C@](O)(CO)[C@H]4O)c(OC)c3)oc2c1,Non-toxic
5.70,4.65,4.68,COc1cc([C@H]2OC[C@H]3[C@@H]2CO[C@@H]3c2cc(OC)c(O)c(OC)c2)ccc1O,Non-toxic
< 4.30,< 4.30,< 4.30,COc1cc([C@H]2c3c(cc(OC)c(O)c3OC)C[C@@H](CO)[C@@H]2CO[C@@H]2O[C@H](CO)[C@@H](O)[C@H](O)[C@H]2O)cc(OC)c1O,Non-toxic
4.54,< 4.30,< 4.30,COc1cc([C@@H]2OC[C@@H]3[C@H]2CO[C@H]3c2ccc(O)c(OC)c2)ccc1O [(+)-PINORESINOL],–
4.87,< 4.30,< 4.30,CC1(C)CC[C@]2(CO)CC[C@]3(C)C(=CC[C@@H]4[C@@]5(C)CC[C@H](O)C(C)(C)[C@@H]5CC[C@]43C)[C@@H]2C1 [ERYTHRODIOL],Non-toxic
5.12,5.69,4.69,C=CC(C)(O)CC/C=C(\C)CCC=C(C)C (centres undefined) [NEROLIDOL],Non-toxic
< 4.30,< 4.30,< 4.30,COc1cc([C@@H]2CC(=O)c3c(O)cc(O[C@@H]4O[C@H](CO)[C@@H](O)[C@H](O)[C@H]4O[C@@H]4OC[C@](O)(CO[C@@H]5OC[C@](O)(CO)[C@H]5O)[C@H]4O)cc3O2)ccc1O [VISCUMNEOSIDE V],Non-toxic
< 4.30,< 4.30,< 4.30,CC(=O)O[C@H]1CC[C@]2(C)[C@H]3CC=C4[C@@H]5CC(C)(C)CC[C@]5(C)CC[C@@]4(C)[C@]3(C)CC[C@H]2C1(C)C [beta-AMYRIN ACETATE],Non-toxic

# Continued, molecule first:
Structure (SMILES),pIC50 [2],pIC50 [3],pIC50 [4],Activity [1]
COc1cc(O)c2c(c1)O[C@H](c1ccc(O[C@@H]3O[C@H](CO)[C@@H](O)[C@H](O)[C@H]3O[C@@H]3OC[C@](O)(CO[C@@H]4OC[C@](O)(CO)[C@H]4O)[C@H]3O)c(OC)c1)CC2=O,< 4.30,< 4.30,< 4.30,Non-toxic
COc1cc([C@@H]2CC(=O)c3c(O)cc(O[C@@H]4O[C@H](CO)[C@@H](O)[C@H](O)[C@H]4O[C@@H]4OC[C@](O)(CO)[C@H]4O)cc3O2)ccc1O,< 4.30,< 4.30,< 4.30,Non-toxic
COc1cc([C@@H]2c3c(cc(OC)c(O)c3OC)C[C@H](CO)[C@H]2CO[C@@H]2O[C@H](CO)[C@@H](O)[C@H](O)[C@H]2O)cc(OC)c1O,4.84,< 4.30,< 4.30,Non-toxic
COc1cc(O)c2c(=O)c(OC)c(-c3ccc(O[C@@H]4O[C@H](CO)[C@@H](O)[C@H](O)[C@H]4O[C@@H]4OC[C@](O)(CO)[C@H]4O)c(OC)c3)oc2c1,5.41,6.00,5.05,Non-toxic
COc1cc(O)c2c(=O)c(O[C@H]3O[C@H](COC(=O)CC(C)(O)CC(=O)OC[C@H]4O[C@@H](Oc5c(OC)cc(/C=C/CO)cc5OC)[C@H](O)[C@@H](O)[C@@H]4O)[C@@H](O)[C@H](O)[C@H]3O)c(-c3ccc(O[C@@H]4O[C@H](CO)[C@@H](O)[C@H](O)[C@H]4O)c(OC)c3)oc2c1 (some centres undefined),< 4.30,< 4.30,< 4.30,Non-toxic
COc1cc(-c2cc(=O)c3c(O)cc(O[C@@H]4O[C@H](CO)[C@@H](O)[C@H](O)[C@H]4O[C@@H]4OC[C@](O)(CO)[C@@H]4O)cc3o2)ccc1O,4.11,< 4.30,< 4.30,Non-toxic
COc1cc([C@H]2OC[C@H]3[C@@H]2CO[C@@H]3c2ccc(O)c(OC)c2)ccc1O [(+)-PINORESINOL],–,–,–,Non-toxic
C=C(C)[C@@H]1CC[C@]2(C(=O)O)CC[C@]3(C)[C@H](CC[C@@H]4[C@@]5(C)CC[C@H](O)C(C)(C)[C@@H]5CC[C@]43C)[C@@H]12 [BETULINIC ACID],5.44,4.71,4.67,Non-toxic
CC1(C)CC[C@]2(C(=O)O)CC[C@]3(C)C(=CC[C@@H]4[C@@]5(C)CC[C@H](O)C(C)(C)[C@@H]5CC[C@]43C)[C@@H]2C1 [OLEANOLIC_ACID],< 4.30,< 4.30,< 4.30,Non-toxic
C[S+]([O-])c1ccc(-c2nc(-c3ccc(F)cc3)c(-c3ccncc3)[nH]2)cc1 (centres undefined) [SB-203580],5.28,5.12,5.46,–
COc1cc(/C=C/CO)cc(OC)c1O[C@@H]1O[C@H](CO)[C@@H](O)[C@H](O)[C@H]1O [SYRINGIN],< 4.30,< 4.30,< 4.30,Non-toxic
C/C(=C\CO)CCC[C@H](C)CCC[C@H](C)CCCC(C)C [TRANS-PHYTOL],5.44,5.91,5.69,Non-toxic
